In the NIST ThermoML archive (doi:10.1016/j.tca.2015.06.017):

Assay: xn = mol fraction of the nth substance listed
Conditions: Liquid, Vibrating tube method

CC(C)CCl [1-chloro-2-methylpropane] + CCCCCCC
mass density [kg/m3]
Conditions | 283.15 K | 293.15 K
100 kPa, x2 = 0.0531 | 874.07 | 862.97
100 kPa, x2 = 0.1023 | 861 | 850.09
100 kPa, x2 = 0.2009 | 836.3 | 825.74
100 kPa, x2 = 0.3009 | 813.26 | 803.04
100 kPa, x2 = 0.3981 | 792.55 | 782.63
100 kPa, x2 = 0.4986 | 772.68 | 763.05
100 kPa, x2 = 0.5998 | 754.11 | 744.76
100 kPa, x2 = 0.7038 | 736.38 | 727.31
100 kPa, x2 = 0.7993 | 721.25 | 712.4
100 kPa, x2 = 0.8995 | 706.4 | 697.78
100 kPa, x2 = 0.9507 | 699.19 | 690.68
2000 kPa, x2 = 0.0531 | 876.04 | 865
2000 kPa, x2 = 0.1023 | 862.99 | 852.14
2000 kPa, x2 = 0.2009 | 838.37 | 827.88
2000 kPa, x2 = 0.3009 | 815.32 | 805.15
2000 kPa, x2 = 0.3981 | 794.55 | 784.68
2000 kPa, x2 = 0.4986 | 774.64 | 765.08
2000 kPa, x2 = 0.5998 | 756.04 | 746.74
2000 kPa, x2 = 0.7038 | 738.29 | 729.29
2000 kPa, x2 = 0.7993 | 723.14 | 714.35
2000 kPa, x2 = 0.8995 | 708.31 | 699.74
2000 kPa, x2 = 0.9507 | 701.15 | 692.69
5000 kPa, x2 = 0.0531 | 879.03 | 868.28
5000 kPa, x2 = 0.1023 | 865.96 | 855.4
5000 kPa, x2 = 0.2009 | 841.29 | 831.08
5000 kPa, x2 = 0.3009 | 818.18 | 808.31
5000 kPa, x2 = 0.3981 | 797.37 | 787.79
5000 kPa, x2 = 0.4986 | 777.41 | 768.11
5000 kPa, x2 = 0.5998 | 758.77 | 749.74
5000 kPa, x2 = 0.7038 | 741 | 732.21
5000 kPa, x2 = 0.7993 | 725.78 | 717.25
5000 kPa, x2 = 0.8995 | 710.91 | 702.62
5000 kPa, x2 = 0.9507 | 703.73 | 695.55
7000 kPa, x2 = 0.0531 | 880.97 | 870.39
7000 kPa, x2 = 0.1023 | 867.88 | 857.47
7000 kPa, x2 = 0.2009 | 843.19 | 833.12
7000 kPa, x2 = 0.3009 | 820.06 | 810.3
7000 kPa, x2 = 0.3981 | 799.24 | 789.75
7000 kPa, x2 = 0.4986 | 779.24 | 770.05
7000 kPa, x2 = 0.5998 | 760.58 | 751.63
7000 kPa, x2 = 0.7038 | 742.77 | 734.07
7000 kPa, x2 = 0.7993 | 727.56 | 719.06
7000 kPa, x2 = 0.8995 | 712.67 | 704.42
7000 kPa, x2 = 0.9507 | 705.48 | 697.32
10000 kPa, x2 = 0.0531 | 883.84 | 873.43
10000 kPa, x2 = 0.1023 | 870.72 | 860.49
10000 kPa, x2 = 0.2009 | 845.97 | 836.1
10000 kPa, x2 = 0.3009 | 822.78 | 813.24
10000 kPa, x2 = 0.3981 | 801.92 | 792.65
10000 kPa, x2 = 0.4986 | 781.87 | 772.89
10000 kPa, x2 = 0.5998 | 763.16 | 754.46
10000 kPa, x2 = 0.7038 | 745.31 | 736.87
10000 kPa, x2 = 0.7993 | 730.05 | 721.81
10000 kPa, x2 = 0.8995 | 715.13 | 707.11
10000 kPa, x2 = 0.9507 | 707.91 | 700
20000 kPa, x2 = 0.0531 | 892.78 | 882.96
20000 kPa, x2 = 0.1023 | 879.6 | 869.95
20000 kPa, x2 = 0.2009 | 854.73 | 845.39
20000 kPa, x2 = 0.3009 | 831.42 | 822.38
20000 kPa, x2 = 0.3981 | 810.43 | 801.64
20000 kPa, x2 = 0.4986 | 790.3 | –
20000 kPa, x2 = 0.5998 | 771.47 | –
20000 kPa, x2 = 0.7038 | 753.52 | –
20000 kPa, x2 = 0.7993 | 738.16 | –
20000 kPa, x2 = 0.8995 | 723.13 | –
20000 kPa, x2 = 0.9507 | 715.85 | –
30000 kPa, x2 = 0.0531 | 900.97 | –
30000 kPa, x2 = 0.1023 | 887.68 | –
30000 kPa, x2 = 0.2009 | 862.6 | –
30000 kPa, x2 = 0.3009 | 839.17 | –
30000 kPa, x2 = 0.3981 | 818.12 | –
30000 kPa, x2 = 0.4986 | 797.85 | –
30000 kPa, x2 = 0.5998 | 778.93 | –
30000 kPa, x2 = 0.7038 | 760.8 | –
30000 kPa, x2 = 0.7993 | 745.44 | –
30000 kPa, x2 = 0.8995 | 730.29 | –
30000 kPa, x2 = 0.9507 | 722.95 | –
40000 kPa, x2 = 0.0531 | 908.57 | –
40000 kPa, x2 = 0.1023 | 895.22 | –
40000 kPa, x2 = 0.2009 | 870.06 | –
40000 kPa, x2 = 0.3009 | 846.56 | –
40000 kPa, x2 = 0.3981 | 825.29 | –
40000 kPa, x2 = 0.4986 | 804.92 | –
40000 kPa, x2 = 0.5998 | 785.84 | –
40000 kPa, x2 = 0.7038 | 767.67 | –
40000 kPa, x2 = 0.7993 | 752.19 | –
40000 kPa, x2 = 0.8995 | 736.93 | –
40000 kPa, x2 = 0.9507 | 729.53 | –
50000 kPa, x2 = 0.0531 | 915.66 | –
50000 kPa, x2 = 0.1023 | 902.32 | –
50000 kPa, x2 = 0.2009 | 876.98 | –
50000 kPa, x2 = 0.3009 | 853.42 | –
50000 kPa, x2 = 0.3981 | 832.08 | –
50000 kPa, x2 = 0.4986 | 811.56 | –
50000 kPa, x2 = 0.5998 | 792.36 | –
50000 kPa, x2 = 0.7038 | 774.06 | –
50000 kPa, x2 = 0.7993 | 758.41 | –
50000 kPa, x2 = 0.8995 | 743.05 | –
50000 kPa, x2 = 0.9507 | 735.59 | –
60000 kPa, x2 = 0.0531 | 922.27 | –
60000 kPa, x2 = 0.1023 | 908.86 | –
60000 kPa, x2 = 0.2009 | 883.47 | –
60000 kPa, x2 = 0.3009 | 859.78 | –
60000 kPa, x2 = 0.3981 | 838.33 | –
60000 kPa, x2 = 0.4986 | 817.73 | –
60000 kPa, x2 = 0.5998 | 798.43 | –
60000 kPa, x2 = 0.7038 | 780.03 | –
60000 kPa, x2 = 0.7993 | 764.33 | –
60000 kPa, x2 = 0.8995 | 748.87 | –
60000 kPa, x2 = 0.9507 | 741.35 | –
65000 kPa, x2 = 0.0531 | 925.46 | –
65000 kPa, x2 = 0.1023 | 912 | –
65000 kPa, x2 = 0.2009 | 886.55 | –
65000 kPa, x2 = 0.3009 | 862.78 | –
65000 kPa, x2 = 0.3981 | 841.29 | –
65000 kPa, x2 = 0.4986 | 820.65 | –
65000 kPa, x2 = 0.5998 | 801.22 | –
65000 kPa, x2 = 0.7038 | 782.82 | –
65000 kPa, x2 = 0.7993 | 767.1 | –
65000 kPa, x2 = 0.8995 | 751.59 | –
65000 kPa, x2 = 0.9507 | 744.04 | –
